In patent publication US12473289B2, “Heterocyclic compounds as delta-5 desaturase inhibitors and methods of use” (Amgen Inc., priority 2019, dated 2025) one finds IC50 data, which are given here for 31 compounds.

Some results are limits rather than exact numbers.

Sequence of Delta-5-Desaturase (D5D) (O60427 whole entry, species assumed): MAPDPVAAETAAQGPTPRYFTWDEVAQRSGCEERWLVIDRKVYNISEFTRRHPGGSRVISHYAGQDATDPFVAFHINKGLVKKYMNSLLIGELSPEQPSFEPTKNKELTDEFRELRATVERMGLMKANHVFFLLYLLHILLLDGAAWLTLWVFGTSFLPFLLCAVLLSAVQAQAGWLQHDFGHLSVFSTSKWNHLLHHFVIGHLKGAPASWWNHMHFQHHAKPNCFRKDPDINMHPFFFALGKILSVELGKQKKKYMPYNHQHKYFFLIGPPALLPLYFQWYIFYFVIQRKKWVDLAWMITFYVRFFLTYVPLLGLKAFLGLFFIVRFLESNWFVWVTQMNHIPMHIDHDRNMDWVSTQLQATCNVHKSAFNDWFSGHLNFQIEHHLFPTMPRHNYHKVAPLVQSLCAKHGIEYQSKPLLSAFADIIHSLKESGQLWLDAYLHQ

This test addresses Delta-5-Desaturase (D5D) (Homo sapiens (Human), UniProt O60427). As to the kind of experiment: In vitro measurement of Delta-5-Desaturase inhibitory activity using DGLA-CoA and Arachidonyl-CoA mass spectrometric assays. It is filed as biochemical. To be noted: membrane preparations of D5D-overexpressing HEK293 6E cells; averaged over at least two independent runs. In outline: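 DGLA-CoA and arachidonyl-CoA were read by RapidFire SPE triple-quad MS (negative mode, MRM) after a 1 h ambient-temperature reaction quenched with acetonitrile. Enzyme was D5D-overexpressing HEK293 6E membranes at 10 μg/mL final; substrate solution held 0.01 mM DGLA plus NADH, ATP and CoA. Inhibition was referenced to DMSO and no-enzyme wells; 4PL IC50.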
For `COc1cc2nc(C(F)(F)F)c(-c3cnn(CCC(F)(F)F)c3)c(=O)n2cc1Cl` [Example 39-2, 7-chloro-8-methoxy-2-(trifluoromethyl)-3-[1-(3,3,3-trifluoropropyl)-1H-pyrazol-4-yl]-4H-pyrido[1,2-a]pyrimidin-4-one], it took 113 nM to reach half-maximal inhibition (IC50).

Take `C[C@@H](O)c1ccn2c(=O)c(-c3ccc(OCC(F)(F)F)cc3)c(C(F)(F)F)nc2c1` [Example 30-2, 8-((1R)-1-hydroxyethyl)-3-(4-(2,2,2-trifluoroethoxy)phenyl)-2-(trifluoromethyl)-4H-pyrido[1,2-a]pyrimidin-4-one]: the half-inhibitory concentration (IC50) is 111 nM.

In turn, `O=c1c(-c2cnn(CCC(F)(F)F)c2)c(C(F)(F)F)nc2n1CCOC2` [Example 39-38, 2-(trifluoromethyl)-3-[1-(3,3,3-trifluoropropyl)-1H-pyrazol-4-yl]-4H,6H,7H,9H-pyrimido[2,1-c][1,4]oxazin-4-one] registered a half-inhibitory concentration (IC50) of 1070 nM.

`COc1ccn2c(=O)c(-c3cnc(OCC(F)(F)F)c(F)c3)c(C(F)(F)F)nc2c1` [Example 7-3, 3-(5-fluoro-6-(2,2,2-trifluoroethoxy)-3-pyridinyl)-8-methoxy-2-(trifluoromethyl)-4H-pyrido[1,2-a]pyrimidin-4-one] showed a half-maximal inhibitory concentration (IC50) of 4050 nM.

The compound `COc1ccn2c(=O)c(-c3cnn(CC(F)(F)C(F)(F)F)c3)c(C(F)(F)F)nc2c1F` [Example 39-4, 9-fluoro-8-methoxy-3-[1-(2,2,3,3,3-pentafluoropropyl)-1H-pyrazol-4-yl]-2-(trifluoromethyl)-4H-pyrido[1,2-a]pyrimidin-4-one] showed an IC50 of 46.4 nM. Against the preceding compound, the IC50 is about 87-fold lower.

On to `COc1ccn2c(=O)c(-c3ccc(OCC#N)cc3)c(C(F)(F)F)nc2c1` [Example 21, (4-(8-Methoxy-4-oxo-2-(trifluoromethyl)-4H-pyrido[1,2-a]pyrimidin-3-yl)phenoxy)acetonitrile], for which 5.8 nM corresponded to half-maximal inhibition (IC50). Against the preceding compound, the IC50 is about 8-fold lower.

In turn, `COc1ccn2c(=O)c(-c3ccn(CC(F)(F)C(F)(F)F)n3)c(C(F)(F)F)nc2c1` [Example 39-1, 8-Methoxy-3-[1-(2,2,3,3,3-pentafluoropropyl)-1H-pyrazol-3-yl]-2-(trifluoromethyl)-4H-pyrido[1,2-a]pyrimidin-4-one] returned an IC50 of 85 nM.

As to `CC(=O)Nc1ccn2c(=O)c(-c3ccc(OCC(F)(F)F)cc3)c(C(F)(F)F)nc2c1` [Example 1-31, N-(4-oxo-3-(4-(2,2,2-trifluoroethoxy)phenyl)-2-(trifluoromethyl)-4H-pyrido[1,2-a]pyrimidin-8-yl)acetamide], inhibition was half-maximal at 1720 nM (IC50).

For `O=c1c(-c2cnc(OCC(F)(F)F)nc2)c(C(F)(F)F)nc2n1CCOC2` [Example 39-39, 3-[2-(2,2,2-trifluoroethoxy)pyrimidin-5-yl]-2-(trifluoromethyl)-4H,6H,7H,9H-pyrimido[2,1-c][1,4]oxazin-4-one], the IC50 is over 67000 nM.

`CCc1nc2cc(OC)ccn2c(=O)c1-c1cnn(CC(F)(F)C(F)(F)F)c1` [Example 3-1, 2-Ethyl-8-methoxy-3-(1-(2,2,3,3,3-pentafluoropropyl)-1H-pyrazol-4-yl)-4H-pyrido[1,2-a]pyrimidin-4-one] came in with a concentration for half-maximal inhibition (IC50) of 53.9 nM. This counts as double-digit nanomolar.

In turn, `O=c1c(-c2ccc(OCC(F)(F)F)cc2)c(C(F)(F)F)nc2cc(C3CC3)ccn12` [Example 4-2, 8-cyclopropyl-3-(4-(2,2,2-trifluoroethoxy)phenyl)-2-(trifluoromethyl)-4H-pyrido[1,2-a]pyrimidin-4-one] showed a concentration for half-maximal inhibition (IC50) of 111 nM.

With `COc1ccn2c(=O)c(-c3ccc(OCC(F)(F)F)cc3C(F)(F)F)c(C(F)(F)F)nc2c1` [Example 8-2, 8-methoxy-3-(4-(2,2,2-trifluoroethoxy)-2-(trifluoromethyl)phenyl)-2-(trifluoromethyl)-4H-pyrido[1,2-a]pyrimidin-4-one], the half-maximal inhibitory concentration (IC50) amounted to 605 nM.

The compound `COc1ccn2c(=O)c(-c3ccc(OCCF)cc3)c(C(F)(F)F)nc2c1` [Example 1-11, 3-(4-(2-fluoroethoxy)phenyl)-8-methoxy-2-(trifluoromethyl)-4H-pyrido[1,2-a]pyrimidin-4-one] gave a half-inhibitory concentration (IC50) of 26.1 nM. This IC50 lies about 23-fold lower than the previous one.

In the case of `Cc1cc2nc(C(F)(F)F)c(-c3cnn(CC(F)(F)C(F)(F)F)c3)c(=O)n2nc1C` [Example 39-46, 7,8-dimethyl-3-[1-(2,2,3,3,3-pentafluoropropyl)-1H-pyrazol-4-yl]-2-(trifluoromethyl)-4H-pyrimido[1,2-b]pyridazin-4-one], the IC50 came out at 6770 nM.

Regarding `CSc1ccn2c(=O)c(-c3cnn(CC(F)(F)C(F)(F)F)c3)c(C(F)(F)F)nc2c1` [Example 1-30, 8-(methylsulfanyl)-3-(1-(2,2,3,3,3-pentafluoropropyl)-1H-pyrazol-4-yl)-2-(trifluoromethyl)-4H-pyrido[1,2-a]pyrimidin-4-one], the midpoint of inhibition, the IC50, lay at 18.8 nM.

The compound `COc1ccn2c(=O)c(-c3cn(CC(F)(F)C(F)(F)F)nn3)c(C(F)(F)F)nc2c1` [Example 53, 8-Methoxy-3-[1-(2,2,3,3,3-pentafluoropropyl)-1H-1,2,3-triazol-4-yl]-2-(trifluoromethyl)-4H-pyrido[1,2-a]pyrimidin-4-one] came in with an IC50 of 44.7 nM.

As to `[2H]C([2H])([2H])Oc1ccn2c(=O)c(-c3ccc(OCC(F)F)cc3)c(C(F)(F)F)nc2c1` [Example 1-52, 3-(4-(2,2-difluoroethoxy)phenyl)-8-(methyloxy-d3)-2-(trifluoromethyl)-4H-pyrido[1,2-a]pyrimidin-4-one], the IC50 worked out at 5.6 nM.

In the case of `COc1ccn2c(=O)c(-c3ccc(OCC(F)(F)F)nc3F)c(C(F)(F)F)nc2c1` [Example 7-1, 3-(2-Fluoro-6-(2,2,2-trifluoroethoxy)-3-pyridinyl)-8-methoxy-2-(trifluoromethyl)-4H-pyrido[1,2-a]pyrimidin-4-one], the IC50 amounted to 125 nM.

`Cc1cc2nc(C(F)(F)F)c(-c3cnn(CCC(F)(F)F)c3)c(=O)n2nc1C` [Example 39-47, 7,8-dimethyl-2-(trifluoromethyl)-3-[1-(3,3,3-trifluoropropyl)-1H-pyrazol-4-yl]-4H-pyrimido[1,2-b]pyridazin-4-one] yielded a half-inhibitory concentration (IC50) of 65.6 nM.

In turn, `O=c1c(-c2cnn(CC(F)(F)C(F)(F)F)c2)c(C(F)(F)F)nc2cc(Cl)ccn12` [Example 2-6, 8-chloro-3-(1-(2,2,3,3,3-pentafluoropropyl)-1H-pyrazol-4-yl)-2-(trifluoromethyl)-4H-pyrido[1,2-a]pyrimidin-4-one] displayed an IC50 of 8.2 nM.

Consider `COc1nc2nc(C(F)(F)F)c(-c3cnn(CC(F)(F)C(F)(F)F)c3)c(=O)n2cc1Cl` [Example 66, 7-Chloro-8-methoxy-3-[1-(2,2,3,3,3-pentafluoropropyl)-1H-pyrazol-4-yl]-2-(trifluoromethyl)-4H-[1,3]diazino[1,2-a]pyrimidin-4-one], for which the IC50 amounted to 111 nM.

`CSCOc1ccn2c(=O)c(-c3ccc(OCC(F)(F)F)cc3)c(C(F)(F)F)nc2c1` [Example 17-1, 8-((Methylsulfanyl)methoxy)-3-(4-(2,2,2-trifluoroethoxy)phenyl)-2-(trifluoromethyl)-4H-pyrido[1,2-a]pyrimidin-4-one] returned an IC50 of 317 nM.

Take `O=c1c(-c2cnn(CC(F)(F)C(F)(F)F)c2)c(C(F)(F)F)nc2cc(CF)ccn12` [Example 13-2, 8-(fluoromethyl)-3-(1-(2,2,3,3,3-pentafluoropropyl)-1H-pyrazol-4-yl)-2-(trifluoromethyl)-4H-pyrido[1,2-a]pyrimidin-4-one]: the IC50 was 20.5 nM.

`CC(=O)c1ccn2c(=O)c(-c3ccc(OCC(F)(F)F)cc3)c(C(F)(F)F)nc2c1` [Example 1-25, 8-acetyl-3-(4-(2,2,2-trifluoroethoxy)phenyl)-2-(trifluoromethyl)-4H-pyrido[1,2-a]pyrimidin-4-one] registered a 50% inhibitory concentration (IC50) of 6.4 nM.

The compound `C[S+]([O-])c1ccn2c(=O)c(-c3ccc(OCC(F)(F)F)cc3)c(C(F)(F)F)nc2c1` (stereo not shown) [Example 15-1, 8-(Methylsulfinyl)-3-(4-(2,2,2-trifluoroethoxy)phenyl)-2-(trifluoromethyl)-4H-pyrido[1,2-a]pyrimidin-4-one] returned a half-inhibitory concentration (IC50) of 441 nM.

Compound `COc1cc2nc(C(F)(F)F)c(-c3cnn(CC(F)(F)C(F)(F)F)c3)c(=O)n2cc1Cl` [Example 1-45, 7-chloro-8-methoxy-3-[1-(2,2,3,3,3-pentafluoropropyl)-1H-pyrazol-4-yl]-2-(trifluoromethyl)-4H-pyrido[1,2-a]pyrimidin-4-one] had an IC50 of 86.1 nM.

The compound `[2H]C([2H])([2H])c1ccn2c(=O)c(-c3ccc(OCC(F)(F)F)cc3)c(C(F)(F)F)nc2c1` [Example 2-5, 8-(methyl-d3)-3-(4-(2,2,2-trifluoroethoxy)phenyl)-2-(trifluoromethyl)-4H-pyrido[1,2-a]pyrimidin-4-one] displayed a 50% inhibitory concentration (IC50) of 3.9 nM.

As for `[2H]C([2H])([2H])Oc1ccn2c(=O)c(-c3ccc(OCCF)cc3)c(C(F)(F)F)nc2n1` [Example 1-55, 3-(4-(2-fluoroethoxy)phenyl)-8-(methyloxy-d3)-2-(trifluoromethyl)-4H-pyrimido[1,2-a]pyrimidin-4-one], the half-inhibitory concentration (IC50) amounted to 112 nM. Against the preceding compound, the IC50 is about 29-fold higher.

Regarding `CN(C)c1ccn2c(=O)c(-c3ccc(OCC(F)(F)F)cc3)c(C(F)(F)F)nc2c1` [Example 1-28, 8-(dimethylamino)-3-(4-(2,2,2-trifluoroethoxy)phenyl)-2-(trifluoromethyl)-4H-pyrido[1,2-a]pyrimidine-4-one], the midpoint of inhibition, the IC50, lay at 43.5 nM. Against the preceding compound, the IC50 is about 2.6-fold lower.

Take `O=c1c(-c2cnn(CC(F)(F)C(F)(F)F)c2)c(C(F)(F)F)nc2cc(OCCl)ccn12` [Example 46, 8-(Chloromethoxy)-3-[1-(2,2,3,3,3-pentafluoropropyl)-1H-pyrazol-4-yl]-2-(trifluoromethyl)-4H-pyrido[1,2-a]pyrimidin-4-one]: the midpoint of inhibition, the IC50, lay at 16.6 nM. This IC50 lies about 2.6-fold lower than the previous one.

Consider `COc1ccn2c(=O)c(-c3ccn(-c4ccccc4)n3)c(C(F)(F)F)nc2c1` [Example 1-3, 8-methoxy-3-(1-phenyl-1H-pyrazol-3-yl)-2-(trifluoromethyl)-4H-pyrido[1,2-a]pyrimidin-4-one], for which the IC50 came out at 371 nM.

The IC50 is the midpoint of a concentration-inhibition curve.
